Converted amounts (≈) assume the structure as drawn.
System: bacteria
Test: MIC determination, positive control (strain not stated)
Settings: 24 h

## CN[C@H](CC(C)C)C(=O)N[C@H]1C(=O)N[C@@H](CC(N)=O)C(=O)N[C@H]2C(=O)N[C@H]3C(=O)N[C@H](C(=O)N[C@H](C(=O)O)c4cc(O)cc(O)c4-c4cc3ccc4O)[C@H](O)c3ccc(c(Cl)c3)Oc3cc2cc(c3O[C@@H]2O[C@H](CO)[C@@H](O)[C@H](O)[C@H]2O[C@H]2C[C@](C)(N)[C@H](O)[C@H](C)O2)Oc2ccc(cc2Cl)[C@H]1O [vancomycin]
  MIC: 1 µg/mL (≈ 0.69 µM)

Source: PMC11993615, “Design, synthesis and optimization of TarO inhibitors as multifunctional antibiotics against Methicillin-resistant Staphylococcus aureus” (npj Antimicrobials and Resistance, 2025)
